In ChEMBL document CHEMBL1201862, “PubChem BioAssay data set” (2004) one finds IC50 and AC50 data, which are given here for six compounds.

A word on the AC50: it is the concentration giving half of the maximal activity seen.

Structures are written as SMILES. Activity calls are given as the source filed them.

Assay [1] deals with Beta-lactamase (Salmonella choleraesuis (strain SC-B67), UniProt Q5J463). The experiment in a line: Epi-absorbance-based counterscreen for selective VIM-2 inhibitors: dose response biochemical high throughput screening assay to identify inhibitors of TEM-1 serine-beta-lactamase. A general note: A counterscreen serves to expose hits that act by an unwanted route or on another target.

The target of assay [2] is T1, Beta-lactamase (Pseudomonas aeruginosa, UniProt Q79MP6). Kind of assay: inhibition of IMP-1 beta-lactamase activity – biochemical, epi-absorbance, selectivity assay for VIM-2 inhibitor project, dose response (AID 1920).
Assay [3] has as its target T2, Beta Lactamase (Pseudomonas aeruginosa, UniProt Q932Y6). Kind of assay: concentration-dependent VIM-2 enzyme inhibition – biochemical, epi-absorbance readout, selective inhibitors, dose response (AID 1919).
Assay [4] deals with T1, Beta-lactamase. Kind of assay: […] counterscreen for selective VIM-2 inhibitors: dose response biochemical high throughput screening assay to identify inhibitors of IMP-1 metallo-beta-lactamase.
Assay [5] concerns the target T2, Beta Lactamase. Kind of assay: VIM-2 CCF2 hydrolysis inhibition, assay artifact filter – biochemical, FRET readout, CCF2 substrate, artefact control for selective VIM-2 inhibitor project, dose response (AID 1926).
The nature of assay [6]: mouse fibroblast viability loss – cell-based, cherry-pick samples, set 2, cytotoxicity control for T. cruzi growth inhibitor project, dose response (AID 651817). Type of assay: functional. Particulars: NIH3T3.
The nature of assay [7]: intracellular Trypanosoma cruzi inhibitors in host cells – cell-based, plate reader, cherry-pick samples, set 3, dose response (AID 651818).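 Also: compounds incubated with infected cells for about four days.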 It is filed as functional.
The target in assay [8] is T3, Sentrin-specific protease 8 (Homo sapiens, UniProt Q96LD8).
T3 sequence (Q96LD8 whole entry): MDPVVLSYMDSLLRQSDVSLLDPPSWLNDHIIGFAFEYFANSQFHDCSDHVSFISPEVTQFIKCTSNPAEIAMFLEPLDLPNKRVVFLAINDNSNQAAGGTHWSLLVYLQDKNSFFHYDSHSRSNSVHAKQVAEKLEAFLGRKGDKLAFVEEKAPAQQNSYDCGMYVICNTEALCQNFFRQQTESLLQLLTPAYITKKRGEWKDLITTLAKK
Type of assay: functional.

Assay [9] has as its target T3, Sentrin-specific protease 8. It is filed as functional. The source holds these as a separate data set.
The next assay deals with T4, Caspase-3 (Homo sapiens, UniProt P42574).
T4 sequence (P42574 whole entry): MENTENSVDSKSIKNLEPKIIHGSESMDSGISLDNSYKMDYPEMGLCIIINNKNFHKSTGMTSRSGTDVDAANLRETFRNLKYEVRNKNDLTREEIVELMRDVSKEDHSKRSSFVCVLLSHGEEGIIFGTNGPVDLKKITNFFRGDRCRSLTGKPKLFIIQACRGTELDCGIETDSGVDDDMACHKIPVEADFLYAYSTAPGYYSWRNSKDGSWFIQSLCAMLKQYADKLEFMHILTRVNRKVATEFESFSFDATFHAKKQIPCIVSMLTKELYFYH
The experiment in a line: Dose-response confirmation of uHTS inhibitor hits of Sentrin-Specific Protease 8 in a Caspase-3 Fluorescence assay. It is filed as functional.

Assay [10] deals with Heat shock protein HSP 90-alpha (Homo sapiens, UniProt P07900). It is filed as functional, organism-based.
The next assay has as its target Protein S100-A4 (Homo sapiens, UniProt P26447). The experiment in a line: human S100A4 peptide interaction inhibition curves – biochemical, fluorescence polarization, cherry-picked hits, dose response (AID 687001). Type of assay: functional. A general note: Polarisation of emitted light reports the rotation of a fluorescent probe.
The next assay concerns the target Paired box protein Pax-8 (Homo sapiens, UniProt Q06710). Kind of assay: PAX8 transcriptional activity inhibition in RMG-I – RMG-I cells, luciferase, cherry-pick, dose response (AID 687027).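 Also: luciferase reporter driven by Pax8 target thyroperoxidase promoter measured by SteadyGlo luminescence.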 It is filed as functional, cell-based.
In another assay the test system is A549. The experiment in a line: viability loss in A549 cells – cell-based, plate reader, cherry-pick samples, cytotoxicity control, dose response (AID 687028). Type of assay: functional. Particulars: Homo sapiens.
For the next assay, the target named is Large T antigen (Simian virus 40, UniProt P03070). It is filed as functional, Betapolyomavirus macacae.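 Also: Confirmatory-stage PubChem screen for compounds that inhibit SV40 T antigen.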
The target in assay [11] is T5, Sentrin-specific protease 1 (Homo sapiens, UniProt Q9P0U3). Kind of assay: SENP1 catalytic domain blockers, concentration series – biochemical, kinetic FRET, dose response (AID 651697). Particulars: read-out: IC50_Mean. It is filed as functional.
Assay [12] addresses T5, Sentrin-specific protease 1. Kind of assay: Dose response confirmation of small molecule inhibitors of the catalytic domain of the SUMO protease, SENP1 in a FRET assay. Type of assay: functional. To be noted: read-out: IC50_Mean.

T5 sequence (Q9P0U3 whole entry, the tested form may be a part): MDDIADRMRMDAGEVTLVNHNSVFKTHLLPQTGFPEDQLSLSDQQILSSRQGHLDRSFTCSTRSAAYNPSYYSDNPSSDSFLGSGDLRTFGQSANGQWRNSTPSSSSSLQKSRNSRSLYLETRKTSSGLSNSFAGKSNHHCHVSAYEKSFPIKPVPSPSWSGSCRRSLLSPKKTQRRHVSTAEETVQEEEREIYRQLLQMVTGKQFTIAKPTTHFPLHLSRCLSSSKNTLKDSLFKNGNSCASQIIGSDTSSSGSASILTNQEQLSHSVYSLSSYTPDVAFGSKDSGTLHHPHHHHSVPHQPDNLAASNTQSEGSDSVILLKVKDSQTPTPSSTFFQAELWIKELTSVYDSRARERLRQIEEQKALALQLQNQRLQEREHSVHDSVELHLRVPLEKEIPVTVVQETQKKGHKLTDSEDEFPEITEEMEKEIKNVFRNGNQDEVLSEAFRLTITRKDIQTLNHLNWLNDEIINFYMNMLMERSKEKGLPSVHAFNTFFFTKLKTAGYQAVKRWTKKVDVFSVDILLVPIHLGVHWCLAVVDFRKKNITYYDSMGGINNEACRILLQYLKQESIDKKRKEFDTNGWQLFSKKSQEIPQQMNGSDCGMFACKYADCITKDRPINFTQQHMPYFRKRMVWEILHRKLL
T2 sequence (Q932Y6 whole entry): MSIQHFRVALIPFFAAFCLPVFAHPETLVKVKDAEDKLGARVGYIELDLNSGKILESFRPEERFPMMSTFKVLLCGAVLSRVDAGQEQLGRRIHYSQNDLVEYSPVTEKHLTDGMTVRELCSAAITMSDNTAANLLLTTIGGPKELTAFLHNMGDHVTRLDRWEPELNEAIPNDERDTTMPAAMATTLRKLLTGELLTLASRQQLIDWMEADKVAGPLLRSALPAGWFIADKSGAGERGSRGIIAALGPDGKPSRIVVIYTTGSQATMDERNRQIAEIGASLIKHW
T1 sequence (Q79MP6 whole entry): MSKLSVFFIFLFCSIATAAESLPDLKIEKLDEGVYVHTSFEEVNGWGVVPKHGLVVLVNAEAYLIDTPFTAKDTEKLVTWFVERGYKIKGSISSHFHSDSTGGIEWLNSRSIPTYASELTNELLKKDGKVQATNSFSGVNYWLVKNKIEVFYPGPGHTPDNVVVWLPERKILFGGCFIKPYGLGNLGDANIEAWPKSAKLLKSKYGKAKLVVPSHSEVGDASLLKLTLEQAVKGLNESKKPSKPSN
Sequence of Paired box protein Pax-8 (Q06710 whole entry): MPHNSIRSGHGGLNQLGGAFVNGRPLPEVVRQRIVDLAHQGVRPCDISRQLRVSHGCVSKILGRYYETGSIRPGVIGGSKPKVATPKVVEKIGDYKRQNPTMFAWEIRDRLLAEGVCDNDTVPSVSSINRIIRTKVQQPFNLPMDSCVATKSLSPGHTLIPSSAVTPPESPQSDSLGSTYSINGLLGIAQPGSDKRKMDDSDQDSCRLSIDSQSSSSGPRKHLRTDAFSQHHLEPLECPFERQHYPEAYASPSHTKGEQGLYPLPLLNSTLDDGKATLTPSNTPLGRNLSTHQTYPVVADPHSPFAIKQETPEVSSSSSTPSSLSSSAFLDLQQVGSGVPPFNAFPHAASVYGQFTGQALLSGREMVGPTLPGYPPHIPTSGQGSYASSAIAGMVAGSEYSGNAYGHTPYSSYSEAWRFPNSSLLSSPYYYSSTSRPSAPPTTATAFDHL
Sequence of Protein S100-A4 (P26447 whole entry): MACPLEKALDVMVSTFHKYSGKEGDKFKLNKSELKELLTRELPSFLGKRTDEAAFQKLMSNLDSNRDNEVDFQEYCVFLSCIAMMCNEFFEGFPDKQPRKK
Sequence of Beta-lactamase (Salmonella choleraesuis (strain SC-B67), UniProt Q5J463) (Q5J463 whole entry): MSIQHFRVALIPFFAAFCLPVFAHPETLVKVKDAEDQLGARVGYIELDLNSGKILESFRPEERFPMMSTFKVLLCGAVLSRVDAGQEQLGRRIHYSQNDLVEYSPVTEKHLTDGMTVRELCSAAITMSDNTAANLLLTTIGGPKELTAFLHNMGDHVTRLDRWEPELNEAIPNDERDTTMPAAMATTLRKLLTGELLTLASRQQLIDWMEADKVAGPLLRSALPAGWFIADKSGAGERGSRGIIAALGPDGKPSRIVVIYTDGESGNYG
Sequence of Large T antigen (P03070 whole entry, the tested form may be a part): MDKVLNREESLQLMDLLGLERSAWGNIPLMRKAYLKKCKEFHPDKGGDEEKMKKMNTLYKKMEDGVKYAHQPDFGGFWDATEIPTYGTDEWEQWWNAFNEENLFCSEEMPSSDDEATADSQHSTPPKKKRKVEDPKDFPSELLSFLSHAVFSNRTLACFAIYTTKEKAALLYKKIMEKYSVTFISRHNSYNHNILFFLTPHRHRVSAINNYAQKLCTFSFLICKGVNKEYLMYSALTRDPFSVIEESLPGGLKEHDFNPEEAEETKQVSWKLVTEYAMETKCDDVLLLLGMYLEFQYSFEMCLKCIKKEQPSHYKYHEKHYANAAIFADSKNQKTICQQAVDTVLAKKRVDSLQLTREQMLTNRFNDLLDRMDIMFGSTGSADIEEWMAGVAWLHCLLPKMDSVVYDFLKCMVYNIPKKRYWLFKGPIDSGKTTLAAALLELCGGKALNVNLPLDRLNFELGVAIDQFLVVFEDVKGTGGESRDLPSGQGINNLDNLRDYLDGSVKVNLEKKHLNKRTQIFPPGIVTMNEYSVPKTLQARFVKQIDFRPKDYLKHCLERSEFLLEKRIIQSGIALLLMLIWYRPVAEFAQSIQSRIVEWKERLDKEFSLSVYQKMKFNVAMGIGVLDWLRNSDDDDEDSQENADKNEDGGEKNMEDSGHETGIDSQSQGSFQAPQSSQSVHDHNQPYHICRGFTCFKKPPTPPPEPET

For `O=[N+]([O-])c1ccccc1/C=N/n1c(S)nnc1C(F)(F)F`, the IC50 at Beta-lactamase [1] is > 59.6 µM (inactive); on Beta-lactamase [2], > 59.6 µM (inactive); at Beta Lactamase [3], 9.33 µM (active); at Beta-lactamase [4] it was > 59.6 µM (inactive); at Beta Lactamase [5] it was 3.12 µM (active).
For `Cc1ccc(S(=O)(=O)N(C)C[C@H]2Oc3ccc(NS(=O)(=O)c4ccc(Cl)cc4)cc3CC(=O)N([C@H](C)CO)C[C@H]2C)cc1`, the AC50 in assay [6] was 39 µM (inactive); in [7], 2.35 µM (active).
As to `COc1cccc(-c2cc(C(=O)N3CCc4ccccc4C3)no2)c1`, the IC50 in assay [8] is 46 µM (active); in assay [9], 7.7 µM (active); on Caspase-3 it was 32 µM (active).
As for `COc1cccc2c1C(=O)c1c(O)c3c(c(O)c1C2=O)CC(O)(C(=O)CO)CC3OC1CC(N(C)C)C(O)C(C)O1` (configuration not stated), the figures for the AC50 (in [10]; at Protein S100-A4; on Paired box protein Pax-8) were 0.296 µM (active), 0.257 µM (active) and 0.833 µM (active), respectively.
As for `COc1ccc(S(=O)(=O)Nc2ccc3c(c2)C(=O)N([C@@H](C)CO)C[C@H](C)[C@H](CN(C)C(=O)Nc2ccc(C(F)(F)F)cc2)OCCCC[C@H](C)O3)cc1`, in the assay on A549, the AC50 was 24.9 µM (active).
Take `COc1cc(SC#N)ccc1/N=C/c1c(C)[nH]n(-c2ccc(C)cc2C)c1=O`: the IC50 was 7.19 µM (active) on Large T antigen, 24.8 µM (inactive) in assay [11] and 15 µM (active) in assay [12].
